Test results published in US10450327B2, “Epidithiodioxopiperazine compound or its derivatives, and the use thereof” (priority 2011, dated 2019).

Experiments:
[1] = system: PDGFRβ, PLCγ1, VEGFR2 and ERK; test: PDGF and VEGF signaling in vascular cells from PrxII−/− mouse; format: cell-based; conditions: cells separated from PrxII−/− mouse, PDGF-BB or VEGF-A 10 minutes
Method: Aortic vascular smooth muscle (A) and endothelial cells (B) were separated from a normal mouse and a PrxII−/− mouse, and cultured, and then treated with PDGF-BB and VEGF-A for 10 minutes each after either treating with GT or no treating. The activation of PDGFRβ, PLCγ1, VEGFR2 and ERK was analyzed using a phosphorylation-specific binding antibody for each protein.

[2] = system: left carotid artery of a PrxII−/− mouse; test: Wire-injured carotid artery of PrxII−/− mouse; format: in vivo; conditions: filter paper strip soaked in GT solution, 30 minutes; 10th day after injury
Method: In addition, in order to identify the effects of GT on vascular thickening in a PrxII−/− mouse, left carotid artery of a PrxII−/− mouse was damaged using a flexible wire. After the injury, a Whatman No. 1 filter paper strip was soaked in a control vehicle or a GT solution, and the paper was attached to the surface of vascular epithelia for 30 minutes for the solution to permeate into the tissue. The mouse was recovered at the 10th day after the injury. As a result, the ratio of intima versus media measured from the HE-stained carotid artery sample was presented as mean+− standard error (n=8 per group, *p<0.01).

PDGFRβ and PLCγ1 = test: PDGF-induced signaling, immunoblot, PrxII knocked down HASMCs; format: cell-based, human
Method: (§1) The cells were rinsed with an ice-cold phosphate buffered saline (PBS) solution and then lysed in an extraction buffer solution containing 20 mM Hepes (pH 7.0), 1% Triton X-100, 150 mM NaCl, 10% glycerol, 1 mM EDTA, 2 mM EGTA, 1 mM DTT, 5 mM Na3VO4, 5 mM NaF, 1 mM AEBSF, aprotinin (5 μg/ml), and leupeptin (5 μg/ml). After being centrifuged at 12,000×g, the purified cell extracts were used for immunoblotting. In order to adjust the loading, the membranes were stripped by shaking them for 30 minutes at 60° C. in 67 mM Tris (pH 6.7), 2% SDS, and 100 mM 2-mercaptoethanol solution, and reprobed with an appropriate pan antibody.
In addition, the regulatory effects of GT on the PDGFRβ- and VEGFR2-mediated signaling pathway were examined. The GT treatment in HASMCs was quite different from PDGF-induced tyrosine phosphorylation that was enhanced by the PrxII knockdown (FIG. 12a). […] Conversely, the GT treatment in HAECs restored the VEGF-dependent activation of VEGFR2 and ERK that had been diminished by the PrxII knockdown (FIG. 12b). The effects of GT in vascular cell fuction were further validated.

[3] = system: yeast thioredoxin (Trx) / yeast thioredoxin reductase (TR) system; test: Peroxidase activity assay (hydrogen peroxide reduction), Trx/TR system; format: biochemical; conditions: 25 μM ETP compound, 30° C., NADPH oxidation at 340 nm
Method: The peroxidase activity assay for the epidithiodioxopiperazine derivatives according to the present invention (hereinafter, referred to as ETP compounds) was performed according to known methods [Korean Patent No. 10-0953326]. A standard peroxidase reaction for spectrophotometric assay was carried out using a 200 μl reaction mixture of 1 mM EDTA-containing 50 mM Hepes-NaOH buffer solution (pH 7.0) including 250 μM NADPH, 3 μM yeast thioredoxin (Trx), 1.5 μM yeast thioredoxin reductase (TR), 25 μM ETP compound and […] of hydrogen peroxide. For the comparison with a glutathione (GSH)-dependent peroxidase reaction, GSH (1 mM) and yeast glutathione reductase (GSH reductase; GR) (1 Unit) were added instead of yeast Trx and TR. Each reaction was initiated by adding hydrogen peroxide, and the NADPH oxidation was monitored for 12 minutes at 30° C. according to absorbance decrease at 340 nm using an Agilent UV8453 spectrophotometer (Hewlett Packard, USA). The initial reaction rate was calculated using the linear portion of the curve and expressed as the amount of NADPH oxidized per minute.
The chemical feature of the epidithiodioxopiperazine compound of the present invention or its derivatives is the intramolecular disulfide bridge present in the epidithiodioxopiperazine ring moiety. Cellular peroxidase reduces hydrogen peroxide utilizing the electrons derived from NADPH via two electron-transfer routes, that is, Trx/TR or GSH/GR, therefore, spectrophotometric assay was performed for the hydrogen peroxide-reducing activity in the presence of each system, and the results are shown in FIGS. 1 to 5.

[4] = system: Src/ERK, β-catenin, E-cadherin; test: Serum-induced signaling and E-cadherin expression, SK28 cells; format: cell-based, human
Method: as §1
(§2) This proves the peroxidase activity of GT. Again, while GT treatment in the SK28 cells reduced Src/ERK activation and β-catenin phosphorylation, it increased the expression of E-cadherin (FIG. 53B). Furthermore, GT reduced the proliferation and the migration responding to serum stimulation in both SK5 and SK28 cells (FIGS. 53C and D).

[5] = system: SK-MEL-28 (SK28) melanoma cells; test: Intracellular hydrogen peroxide, SK28 melanoma cells; format: cell-based, human; conditions: PrxII-deficient SK28 cells, nontoxic level of GT
Method: The intracellular H2O2 level was measured using 5,6-chloromethyl-2′,7′-dichlorodihydrofluorescein diacetate (CM-DCFH-DA, Invitrogen), an oxidation-sensitive fluorescent dye. Human epidermal melanocyte, SK-MEL-5, SK-MEL-28, A375 and G361 cells (3×10^5) were grown in a 35 mm culure dish and infected with retroviruses for 24 hours. After that, the cells were serum-starved for 18 hours, and stimulated with 20% FBS for 10 minutes in a phenol red-free medium. After stimulated as described above, the cells were quickly rinsed with a Krebs-Ringer solution, and incubated with 5 μM CM-DCFH-DA for 5 minutes. 2′,7′-dichlorodihydrofluorescein (DCF) fluorescence was collected for 10 seconds using an inverted Axiovert 200 fluorescence microscope (Zeiss). The relative DCF fluorescence was calculated by averaging the fluorescence intensities of 60 to 80 cells after subtracting the background fluorescence from each image using an ImageQuant™ software (GE Healthcare). The desorbed sphenoid cells were excluded from quantification.
as §2

[6] = system: PrxII knocked down HASMCs; test: Intracellular hydrogen peroxide (DCF fluorescence), PrxII knocked down HASMCs; format: cell-based, human; conditions: concentration-dependent
Method: First, the ability of GT to eliminate intracellular hydrogen peroxide in PrxII knocked down HASMCs and HAECs was tested. The cellular hydrogen peroxide production was monitored using an oxidant-sensitive fluorescence dye (2′,7′-dihydro-chlorofluorescein diacetate, H2DCF-DA).

## CN1C(=O)[C@]23CC4=CC=C[C@H](O)[C@H]4N2C(=O)[C@@]1(CO)SS3 [gliotoxin]
[1]
  effects on PDGF signaling in VSMC and VEGF signaling in VEC: opposed regulatory effects
[2]
  vascular thickening (ratio of intima versus media): markedly reduced
PDGFRβ and PLCγ1
  level of PDGFRβ and PLCγ1 activation: diminished to the level of stimulated control group cells
[3]
  hydrogen peroxide-reducing activity in the presence of a Trx/TR system: 3.72 ± 0.53 nmol/min
[4]
  expression of E-cadherin: increased
[4]; serum stimulation
  Src/ERK activation and β-catenin phosphorylation: reduced
[5]
  level of intracellular hydrogen peroxide: reduced
[6]
  level of intracellular hydrogen peroxide increased by PDGF and PrxII knockdown: completely canceled out
